In brackets after ≈: the same amount, converted by molar mass.
How the values were obtained:
[1] = system: Streptococcus pneumoniae (ATCC6305); experiment: IC90 determination, microtitre plate assay, SPN 6305; format: cell-based; conditions: 90% inhibitory concentration for bacterial growth, 37° C.; for IC90: Streptococcus pneumoniae, ATCC6305, 24 h, read-out: IC90 (μg/ml) SPN 6305; for IC90 (μg/ml) SPN 6305: 24 hours
Procedure: (§1) D.3. In-Vitro Method for Testing Compounds for Anti-Bacterial Activity Against Various Non-Mycobacterial Strains
(§2) Preparation of Bacterial Suspensions for Susceptibility Testing:
(§3) The bacteria used in this study were grown overnight in flasks containing 100 ml Mueller-Hinton Broth (Becton Dickinson—cat. no. 275730) in sterile de-ionized water, with shaking, at 37° C. Stocks (0.5 ml/tube) were stored at −70° C. until use. Bacteria titrations were performed in microtiter plates to detect the TCID50, in which the TCID50 represents the dilution that gives rise to bacterial growth in 50% of inoculated cultures.
(§4) In general, an inoculum level of approximately 100 TCID50 was used for susceptibility testing.
(§5) Anti Bacterial Susceptibility Testing: IC90 Determination
(§6) Flat-bottom, sterile 96-well plastic microtiter plates were filled with 180 μl of sterile deionized water, supplemented with 0.25% BSA. Subsequently, stock solutions (7.8×final test concentration) of compounds were added in 45 μl volumes in column 2 Serial five-fold dilutions (45 μl in 180 μl) were made directly in the microtiter plates from column 2 to reach column 11. Untreated control samples with (column 1) and without (column 12) inoculum were included in each microtiter plate. Depending on the bacteria type, approximately 10 to 60 CFU per well of bacteria inoculum (100 TCID50), in a volume of 100 μl in 2.8×Mueller-Hinton broth medium, was added to the rows A to H, except column 12. The same volume of broth medium without inoculum was added to column 12 in row A to H. The cultures were incubated at 37° C. for 24 hours under a normal atmosphere (incubator with open air valve and continuous ventilation). At the end of incubation, one day after inoculation, the bacterial growth was quantitated fluorometrically. Therefore resazurin (0.6 mg/ml) was added in a volume of 20 μl to all wells 3 hours after inoculation, and the plates were re-incubated overnight. A change in colour from blue to pink indicated the growth of bacteria. The fluorescence was read in a computer-controlled fluorometer (Cytofluor Biosearch) at an excitation wavelength of 530 nm and an emission wavelength of 590 nm. The % growth inhibition achieved by the compounds was calculated according to standard methods.

[2] = system: Staphylococcus aureus (ATCC29213); experiment: IC90 determination, microtitre plate assay, STA 29213; format: cell-based; conditions: 90% inhibitory concentration for bacterial growth, 37° C.; for IC90: Staphylococcus aureus, ATCC29213, 24 h, read-out: IC90 (μg/ml) STA B29213; for IC90 (μg/ml) STA B29213: 24 hours
Procedure: as §1, §2, §3, §4, §5, §6

M. Smegmatis (ATCC607) = experiment: In-vitro anti-bacterial activity against strain M. Smegmatis ATCC607; format: cell-based; conditions: 90% inhibitory concentration for bacterial growth, 37° C.; for IC90: Mycolicibacterium smegmatis, ATCC607, 48 h, read-out: IC90 (μg/ml) MSM 607; for IC90 (μg/ml) MSM 607: 48 hours
Procedure: D.2. In-Vitro Method for Testing Compounds for Anti-Bacterial Activity Against Strain M. Smegmatis ATCC607
Flat-bottom, sterile 96-well plastic microtiter plates were filled with 180 μl of sterile deionized water, supplemented with 0.25% BSA. Subsequently, stock solutions (7.8×final test concentration) of compounds were added in 45 μl volumes to a series of duplicate wells in column 2 so as to allow evaluation of their effects on bacterial growth. Serial five-fold dilutions (45 μl in 180 μl) were made directly in the microtiter plates from column 2 to 11 using a customised robot system (Zymark Corp., Hopkinton, Mass.). Pipette tips were changed after every 3 dilutions to minimize pipetting errors with high hydrophobic compounds. Untreated control samples with (column 1) and without (column 12) inoculum were included in each microtiter plate. Approximately 250 CFU per well of bacteria inoculum, in a volume of 100 μl in 2.8×Mueller-Hinton broth medium, was added to the rows A to H, except column 12. The same volume of broth medium without inoculum was added to column 12 in row A to H. The cultures were incubated at 37° C. for 48 hours in a humidified 5% CO2 atmosphere (incubator with open air valve and continuous ventilation). At the end of incubation, two days after inoculation, the bacterial growth was quantitated fluorometrically. Therefore Alamar Blue (10×) was added to all wells in a volume of 20 μl and plates were incubated for another 2 hours at […]
The fluorescence was read in a computer-controlled fluorometer (Cytofluor, Biosearch) at an excitation wavelength of 530 nm and an emission wavelength of 590 nm (gain 30).

[3] = system: methicilline resistant Staphylococcus aureus (MRSA) (a clinical isolate from the University of Antwerp); experiment: IC90 determination, microtitre plate assay, STA RMETH; format: cell-based; conditions: 90% inhibitory concentration for bacterial growth, 37° C.; for IC90: Staphylococcus aureus, MRSA, 24 h, read-out: IC90 (μg/ml) STA RMETHIC
Procedure: as §1, §2, §3, §4, §5
as §6, with “Therefore resazurin (0.6 mg/ml) was added in a volume of 20 μl to all wells 3 hours after inoculation, and the plates were re-incubated overnight. A change in colour from blue to pink indicated the growth of bacteria.” left out

[4] = system: Enterococcus faecalis (ATCC29212); experiment: IC90 determination, microtitre plate assay, EFA 29212; format: cell-based; conditions: 90% inhibitory concentration for bacterial growth, 24 hours, 37° C., read-out: IC90 (μg/ml) EFA 29212
Procedure: as §1, §2, §3, §4, §5
(§7) Flat-bottom, sterile 96-well plastic microtiter plates were filled with 180 μl of sterile deionized water, supplemented with 0.25% BSA. […] At the end of incubation, one day after inoculation, the bacterial growth was quantitated fluorometrically. […] The fluorescence was read in a computer-controlled fluorometer (Cytofluor Biosearch) at an excitation wavelength of 530 nm and an emission wavelength of 590 nm. The % growth inhibition achieved by the compounds was calculated according to standard methods.

[5] = system: Streptococcus pyogens (ATCC8668); experiment: IC90 determination, microtitre plate assay, SPY 8668; format: cell-based; conditions: 90% inhibitory concentration for bacterial growth, 24 hours, 37° C., read-out: IC90 (μg/ml) SPY 8668
Procedure: as §1, §2, §3, §4, §5, §7

[6] = system: Pseudomonas aeruginosa (ATCC27853); experiment: IC90 determination, microtitre plate assay, PAE 27853; format: cell-based; conditions: 90% inhibitory concentration for bacterial growth, 24 hours, 37° C., read-out: IC90 (μg/ml) PAE 27853
Procedure: as §1, §2, §3, §4, §5, §7

[7] = system: Escherichia coli (ATCC35218); experiment: IC90 determination, microtitre plate assay, ECO 35218; format: cell-based; conditions: 90% inhibitory concentration for bacterial growth, 24 hours, 37° C., read-out: IC90 (μg/ml) ECO 35218
Procedure: as §1, §2, §3, §4, §5, §7

Row | SMILES | IC90 [2] | IC90 (M. Smegmatis (ATCC607)) | IC90 (μg/ml) SPN 6305 [1] | IC90 (μg/ml) MSM 607 (M. Smegmatis (ATCC607)) | IC90 (μg/ml) STA B29213 [2] | melting point | other results
1 | COc1nc2ccc(Br)cc2cc1C(c1ccccc1)C(O)(CSCCCN1CCN(C)CC1)c1ccccc1 (single isomer, unassigned) [Compound 12] | 4.39 µg/mL (≈ 7.07 µM) | 2.2 µg/mL (≈ 3.54 µM) | – | – | – | – | IC90 [1]: 2.2 µg/mL (≈ 3.54 µM); IC90 [3]: 13.9 µg/mL (≈ 22.4 µM)
2 | CCN(CC)CCSCC(O)(c1ccccc1)C(c1ccccc1)c1cc2cc(Br)ccc2nc1OC (single isomer, unassigned) [Compound 5] | 58 µg/mL (≈ 100 µM) | – | 2.31 µg/mL (≈ 3.99 µM) | 2.06 µg/mL (≈ 3.55 µM) | – | – | –
3 | COc1nc2ccc(Br)cc2cc1C(c1ccccc1)C(O)(CSCCCN1CCCCC1)c1ccccc1 (single isomer, unassigned) [Compound 9] | – | – | 60.56 µg/mL (≈ 100 µM) | 48.11 µg/mL (≈ 79.4 µM) | 60.56 µg/mL (≈ 100 µM) | 158 °C | –
4 | CCN(CC)CCSCC(O)(c1ccccc1)C(c1ccccc1)c1cc2cc(Br)ccc2nc1OC (single isomer, unassigned) [Compound 6] | – | – | 23.07 µg/mL (≈ 39.8 µM) | 10.31 µg/mL (≈ 17.8 µM) | 51.66 µg/mL (≈ 89.1 µM) | 148 °C | –
5 | COc1nc2ccc(Br)cc2cc1C(c1ccccc1)C(O)(CSCCCN1CCN(C)CC1)c1ccccc1 (single isomer, unassigned) [Compound 11] | – | – | 1.96 µg/mL (≈ 3.16 µM) | 1.96 µg/mL (≈ 3.16 µM) | 4.93 µg/mL (≈ 7.94 µM) | 136 °C | IC90 (μg/ml) STA RMETHIC ([3]; 24 hours): 12.38 µg/mL (≈ 19.9 µM)
6 | COc1nc2ccc(Br)cc2cc1C(c1ccccc1)C(O)(CSCCCN1CCCCC1)c1ccccc1 (single isomer, unassigned) [Compound 10] | – | – | 2.15 µg/mL (≈ 3.55 µM) | 1.92 µg/mL (≈ 3.17 µM) | 4.81 µg/mL (≈ 7.94 µM) | – | –
7 | COc1nc2ccc(Br)cc2cc1C(c1ccccc1)C(O)(CSCCN(C)C)c1ccccc1 (single isomer, unassigned) [Compound 2] | – | – | 8.74 µg/mL (≈ 15.8 µM) | 2.46 µg/mL (≈ 4.46 µM) | 21.96 µg/mL (≈ 39.8 µM) | – | –
8 | COc1nc2ccc(Br)cc2cc1C(c1ccccc1)C(O)(CSCCN(C)C)c1ccccc1 (single isomer, unassigned) [Compound 1] | – | – | – | 6.94 µg/mL (≈ 12.6 µM) | 8.74 µg/mL (≈ 15.8 µM) | 175 °C | IC90 [1]: 4.92 µg/mL (≈ 8.92 µM); IC90 [4]: 19.6 µg/mL (≈ 35.5 µM); IC90 [5]: 49.2 µg/mL (≈ 89.1 µM); IC90 [6]: 22 µg/mL (≈ 39.8 µM); IC90 [7]: 55.2 µg/mL (≈ 100 µM)
9 | COc1nc2ccc(Br)cc2cc1C(c1ccccc1)C(O)(CSCCCN(C)C)c1ccccc1 (single isomer, unassigned) [Compound 4] | 7.99 µg/mL (≈ 14.1 µM) | 2.01 µg/mL (≈ 3.55 µM) | 10.06 µg/mL (≈ 17.8 µM) | – | – | 136 °C | –
10 | COc1nc2ccc(Br)cc2cc1C(c1ccccc1)C(O)(CSCCCN(C)C)c1ccccc1 (single isomer, unassigned) [Compound 3] | – | – | 2.01 µg/mL (≈ 3.55 µM) | 1.79 µg/mL (≈ 3.16 µM) | 6.35 µg/mL (≈ 11.2 µM) | – | IC90 [4]: 11.3 µg/mL (≈ 19.9 µM); IC90 [5]: 7.99 µg/mL (≈ 14.1 µM); IC90 [6]: 11.3 µg/mL (≈ 19.9 µM); IC90 [3]: 11.3 µg/mL (≈ 19.9 µM); IC90 [7]: 14.2 µg/mL (≈ 25.1 µM)
11 | COc1nc2ccc(Br)cc2cc1C(c1ccccc1)C(O)(CN(CCN(C)C)Cc1ccccc1)c1ccccc1 (stereo not shown) [Compound 16] | 62.5 µg/mL (≈ 100 µM) | 55.7 µg/mL (≈ 89.1 µM) | – | – | – | – | IC90 [1]: 62.5 µg/mL (≈ 100 µM)
12 | COc1nc2ccc(Br)cc2cc1C(c1ccccc1)C(O)(CN(C)CCN(C)C)c1ccccc1 (single isomer, unassigned) [Compound 14] | – | – | – | 8.69 µg/mL (≈ 15.8 µM) | 54.85 µg/mL (≈ 100 µM) | – | –
13 | COc1nc2ccc(Br)cc2cc1C(c1ccccc1)C(O)(CN(CCN(C)C)Cc1ccccc1)c1ccccc1 (stereo not shown) [Compound 15] | – | – | 62.46 µg/mL (≈ 100 µM) | 62.46 µg/mL (≈ 100 µM) | 62.46 µg/mL (≈ 100 µM) | – | –
14 | CCN(CC)CCCSCC(O)(c1ccccc1)C(c1ccccc1)c1cc2cc(Br)ccc2nc1OC (single isomer, unassigned) [Compound 8] | – | 1.88 µg/mL (≈ 3.17 µM) | – | – | 1.88 µg/mL (≈ 3.17 µM) | – | IC90 [1]: 2.36 µg/mL (≈ 3.98 µM)
15 | CCN(CC)CCCSCC(O)(c1ccccc1)C(c1ccccc1)c1cc2cc(Br)ccc2nc1OC (single isomer, unassigned) [Compound 7] | – | – | 2.65 µg/mL (≈ 4.46 µM) | 1.88 µg/mL (≈ 3.17 µM) | 9.41 µg/mL (≈ 15.9 µM) | 104 °C | –
16 | COc1nc2ccc(Br)cc2cc1C(c1ccccc1)C(O)(CN(C)CCN(C)C)c1ccccc1 (single isomer, unassigned) [Compound 13] | 43.6 µg/mL (≈ 79.4 µM) | 8.69 µg/mL (≈ 15.8 µM) | – | – | – | 128 °C | –

Reference: US7998979B2, “Antibacterial quinoline derivatives” (Janssen Pharmaceutical N.V., priority 2006, dated 2011)
